Results from patent US20220110919A1, “METHODS OF MODULATING LEUKOCYTES ACTIVATION AND THROMBOCYTE CLEARANCE WITH INHIBITORS OF SPECIFIC NEURAMINIDASE ISOENZYMES” (The Governors of the University of Alberta, priority 2018, published 2022).

Test system: reticulated platelets
Experiment: Passive Antibody Transfer Model of ITP (immunothrombocytopenia)
Type: in vivo
Settings: C57Bl/6NCrI mice, anti-CD41 antibody; daily intraperitoneal 30 μg/kg vs saline
Text: The Passive Antibody Transfer Model of ITP has been extensively used to understand the progression of chronic ITP and to rapidly evaluate the efficacy of various therapeutics (Neschadim et al., 2015). The model is characterized by a rapid onset of the ITP and clear involvement of phagocytic monocytes in platelet destruction. In addition, it provides a possibility to use self-antigens relevant to the human condition. Depending on the type, quantity, and frequency of the administered antibody it is possible to vary the severity and the persistence of the induced ITP by fine-tuning the rate and the level of platelet decline whereas the repeated administration of the monoclonal antibody simulates chronic human IT.
Female 6-week old C57Bl/6NCrI mice and genetically-modified C57Bl/6NCrI mice with neu1 deficiency (Passive Antibody Transfer Model of ITP, Neschadim et al., 2015) received escalating daily doses (68 μg/kg on the 1st and 2d days, 102 μg/kg on the third day) of anti-CD41 anti-platelet monoclonal mouse antibody (clone MWReg30) by intraperitoneal injection. The reticulated platelets were measured daily for three days by flow cytometric analysis. Control mice (C57B16) received injections of saline. […]

`CCCCC(=O)NCC(O)C(O)C1OC(C(=O)O)=CC(O)[C@H]1NC(C)=O` (stereo partly drawn) [compound 50, 5-Acetamido-9-pentanamido-2,6-anhydro-3,5-dideoxy-D-glycero-D-galacto-non-2-enonic acid] was tested, and the platelet reduction rate was “lower platelet reduction rates”.
